# In patent publication US9801850B2, “Antibacterial agent” (OSAKA UNIVERSITY, priority 2009, dated 2017):
# Columns and labels:
# Assay type in all cases: cell-based, Staphylococcus aureus
# [1] = test system: MSSA ATCC25923; assay: Membrane damaging properties, SYTOX Green fluorescence (Example 4); settings: for fluorescence intensity ratio of SYTOX Green (control PBS = 1): 37° C., 15 minutes, EGCG derivative 4-32, EGCG 8-128, NISIN 1-8 μg/ml, FIG. 3
# Method: As an antibacterial agent, the EGCG-C16 prepared in Example 1 was used in Example 4; EGCG was used in Comparative Example 4; and membrane-damaging peptide NISIN (MP Biomedicals) was used in a reference example. Antibacterial agent solutions of EGCG-C16 and EGCG were prepared by dissolving them in DMSO so as to achieve top concentrations, respectively. An antibacterial agent solution of the other antibacterial agent was prepared by dissolving it in PBS and diluted with PBS as appropriate. The influence of DMSO used for dissolving the antibacterial agents also was considered.
# MSSA ATCC25923 and MRSA ATCC43300 were subjected to shaking culture in MH-broths (Difco) until they reached a late stage in the exponential growth phase. The thus-obtained culture solutions were each centrifuged at 7000 rpm for 10 minutes, and bacterial cells that had settled were suspended in PBS. The suspension of the bacterial cells was added to wells of a 384 black plate, and each of the antibacterial agent solutions was further added thereto and mixed. The resultant mixture was incubated at 37° C. for 15 minutes. Subsequently, a dead cell-staining dye (trade name “SYTOX Green”, LONZA) was mixed in each well so that the concentration thereof became 10 μmol/l, and the resultant mixture was incubated at 37° C. for 10 minutes. […] On the other hand, as a control, the fluorescence intensity was measured in the same manner, except that PBS or 10% DMSO was added instead of the antibacterial agent solutions. Then, regarding each of the MSSA and MRSA, the ratio of the fluorescence intensity when each of the agents was added was calculated assuming that the fluorescence intensity obtained in the control (PBS) was 1.
# [2] = test system: MSSA ATCC25923; assay: MIC with addition of PG, LPS or D-Ala-D-Ala (Example 3); settings: MSSA (ATCC25923)
# Method: (§1) Regarding EGCG-C16, whether or not the antibacterial action thereof against MSSA and MRSA is inhibited by the addition of: peptidoglycan (PG) or D-Ala-D-Ala, which are each a cell wall component; or lipopolysaccharide (LPS), which is an outer membrane component, was examined. The MIC measurement was carried out in the manner described in Section (2) of Example 2.
# (§2) In Example 3, EGCG-C16 prepared in Example 1 was used as an antibacterial agent. In Comparative Example 3, unsubstituted EGCG was used as an antibacterial agent. […] Antibacterial agent solutions of EGCG-C16 and EGCG were prepared in the same manner as described in Section (2) of Example 1. Antibacterial agent solutions of the antibacterial agents other than EGCG-C16 and EGCG were prepared by dissolving them in PBS.
# (§3) As additives, PG (Peptidoglycan Staphylococcus aureus, SIGMA-ALDRICH), D-Ala-D-Ala (SIGMA-ALDRICH), and LPS (Lipopolysaccharide Salmonella, SIGMA-ALDRICH) were provided. Each of the additives was dissolved in PBS, and the resultant solution was used as an additive solution.
# (§4) Dilution series of the antibacterial agent solutions were prepared. Each of them was dispensed to a 96-well plate. Further, the additive solution was added thereto and mixed. After that, a bacterial culture solution of MRSA ATCC43300 or MSSA ATCC25923 was added thereto and cultured at 37° C. for 18 hours. In the mixture of the antibacterial agent solution, the additive solution, and the bacterial culture solution, the final concentrations of PG, D-Ala-D-Ala, and LPS were each set to 30 μg/ml. Unless otherwise stated, the minimum inhibitory concentration (MIC) was calculated in the same manner as described in Section (2) of Example 2.
# [3] = test system: MRSA ATCC43300; assay: as above; settings: MRSA (ATCC43300)
# Method: as §1, §2, §3, §4
# [4] = test system: MRSA ATCC43300; assay: Checker-board method, combination with β-lactam agent (Example 6); parameters: key to minimum EGCG-C16 concentration inhibiting growth alone: *MIC: The minimum EGCG-C16 concentration when the growth of the bacteria was inhibited using EGCG-C16 alone under a β-lactam agent free condition
# Method: (§5) EGCG-C16 was dissolved in 100% DMSO, and each of the above-described β-lactam agents was dissolved in sterile distilled water. Thereafter, they were diluted with sterile distilled water so as to achieve predetermined concentrations, and the respective agents at the respective concentrations were combined one another. The change in MIC of each β-lactam agent by the addition of EGCG-C16 was measured by the checker-board method. […] The minimum inhibitory concentration (MIC) of each of the above-described β-lactam agents when used in combination with EGCG-C16 was measured in the same manner as described in Section (2) of Example 2, except that the MRSA ATCC43300 and the MRSA clinical isolate No. 8 used in Example 2 were used as the bacteria.
# (§6) As Comparative Example 6, the minimum inhibitory concentration (MIC) was measured in the same manner as in Example 6, except that EGCG was used instead of EGCG-C16.
# [5] = test system: MRSA clinical isolate No. 8; assay: as above; parameters: key to minimum EGCG-C16 concentration inhibiting growth alone: *MIC: The minimum EGCG-C16 concentration when the growth of the bacteria was inhibited using EGCG-C16 alone under a β-lactam agent free condition
# Method: as §5, §6
# [6] = +D-Ala-D-Ala (30 μg/mL), lower part of Table 9
# [7] = +LPS (30 μg/mL), upper part of Table 9
# [8] = +PG (30 μg/mL), lower part of Table 9 (PG/D-Ala-D-Ala series)
# [9] = +PG (30 μg/mL), upper part of Table 9 (PG/LPS series)
# [10] = MH-broth free of additives, lower part of Table 9 (PG/D-Ala-D-Ala series)
# [11] = MH-broth free of additives, upper part of Table 9 (PG/LPS series)
# [12] = MRSA ATCC43300, concentration of EGCG-C16 or EGCG 0 μg/ml
# [13] = MRSA ATCC43300, concentration of EGCG-C16 or EGCG 2 μg/ml
# [14] = MRSA ATCC43300, concentration of EGCG-C16 or EGCG 4 μg/ml
# [15] = MRSA ATCC43300, concentration of EGCG-C16 or EGCG 8 μg/ml
# [16] = concentration of EGCG-C16 or EGCG 0 μg/ml
# [17] = concentration of EGCG-C16 or EGCG 8 μg/ml
# [18] = MRSA ATCC43300, concentration of EGCG-C16 or EGCG 16 μg/ml
# [19] = MRSA ATCC43300, concentration of EGCG-C16 or EGCG 32 μg/ml
# [20] = MRSA ATCC43300, concentration of EGCG-C16 or EGCG 64 μg/ml
# [21] = MRSA ATCC43300, concentration of EGCG-C16 or EGCG 128 μg/ml
compound,measurement,setting,value
EGCG-palmitate [EGCG-C16],fluorescence intensity ratio of SYTOX Green (control PBS = 1),[1],very high fluorescence intensity ratio
same,cell membrane-damaging action at high concentration (SYTOX Green),[1]; EGCG-C16 at 64 μg/ml,tendency for this action of EGCG-C16 to become weak
same,MIC,[2]; [6],16 mg/L
same,MIC,[2]; [7],16 mg/L
same,MIC,[2]; [8],32 mg/L
same,MIC,[2]; [9],32 mg/L
same,MIC,[2]; [10],16 mg/L
same,MIC,[2]; [11],16 mg/L
same,MIC,[3]; [6],8 mg/L
same,MIC,[3]; [7],16 mg/L
same,MIC,[3]; [8],16 mg/L
same,MIC,[3]; [9],32 mg/L
same,MIC,[3]; [10],8 mg/L
same,MIC,[3]; [11],16 mg/L
same,MIC of ABPC when used in combination with EGCG-C16 or EGCG,[4]; [12],32 mg/L
same,MIC of IPM when used in combination with EGCG-C16 or EGCG,[4]; [12],0.016 mg/L
same,MIC of ABPC when used in combination with EGCG-C16 or EGCG,[4]; [13],16 mg/L
same,MIC of IPM when used in combination with EGCG-C16 or EGCG,[4]; [13],0.016 mg/L
same,MIC of ABPC when used in combination with EGCG-C16 or EGCG,[4]; [14],8 mg/L
same,MIC of IPM when used in combination with EGCG-C16 or EGCG,[4]; [14],0.016 mg/L
same,MIC of ABPC when used in combination with EGCG-C16 or EGCG,[4]; [15],1 mg/L
same,MIC of IPM when used in combination with EGCG-C16 or EGCG,[4]; [15],0.004 mg/L
same,minimum EGCG-C16 concentration inhibiting growth alone,"[4]; MRSA ATCC43300, β-lactam agent free, mark stands in the column 16 μg/ml",*MIC
same,MIC of ABPC when used in combination with EGCG-C16 or EGCG,[5]; [16],64 mg/L
same,MIC of ABPC when used in combination with EGCG-C16 or EGCG,[5]; concentration of EGCG-C16 or EGCG 2 μg/ml,32 mg/L
same,MIC of ABPC when used in combination with EGCG-C16 or EGCG,[5]; concentration of EGCG-C16 or EGCG 4 μg/ml,16 mg/L
same,MIC of ABPC when used in combination with EGCG-C16 or EGCG,[5]; [17],2 mg/L
same,minimum EGCG-C16 concentration inhibiting growth alone,"[5]; β-lactam agent free, mark stands in the column 16 μg/ml",*MIC
"O=C(O[C@@H]1Cc2c(O)cc(O)cc2O[C@@H]1c1cc(O)c(O)c(O)c1)c1cc(O)c(O)c(O)c1 [EGCG, Epigallocatechin gallate, reference compound]",fluorescence intensity ratio of SYTOX Green (control PBS = 1),[1],smaller than 1
same,MIC,[2]; [7],> 64 mg/L
same,MIC,[2]; [9],> 64 mg/L
same,MIC,[2]; [11],> 64 mg/L
same,MIC,[3]; [7],> 64 mg/L
same,MIC,[3]; [9],> 64 mg/L
same,MIC,[3]; [11],> 64 mg/L
same,antagonistic action in combination with IPM,"[4]; ATCC43300, IPM susceptible, EGCG at 16 to 64 μg/ml, EGCG derivative in the examined concentration range",weak antagonistic action
same,MIC of ABPC when used in combination with EGCG-C16 or EGCG,[4]; [12],32 mg/L
same,MIC of IPM when used in combination with EGCG-C16 or EGCG,[4]; [12],0.016 mg/L
same,MIC of ABPC when used in combination with EGCG-C16 or EGCG,[4]; [15],8 mg/L
same,MIC of IPM when used in combination with EGCG-C16 or EGCG,[4]; [15],0.016 mg/L
same,MIC of ABPC when used in combination with EGCG-C16 or EGCG,[4]; [18],4 mg/L
same,MIC of IPM when used in combination with EGCG-C16 or EGCG,[4]; [18],0.031 mg/L
same,MIC of ABPC when used in combination with EGCG-C16 or EGCG,[4]; [19],4 mg/L
same,MIC of IPM when used in combination with EGCG-C16 or EGCG,[4]; [19],0.031 mg/L
same,MIC of ABPC when used in combination with EGCG-C16 or EGCG,[4]; [20],2 mg/L
same,MIC of IPM when used in combination with EGCG-C16 or EGCG,[4]; [20],0.031 mg/L
same,MIC of ABPC when used in combination with EGCG-C16 or EGCG,[4]; [21],1 mg/L
same,MIC of IPM when used in combination with EGCG-C16 or EGCG,[4]; [21],0.016 mg/L
same,MIC of ABPC when used in combination with EGCG-C16 or EGCG,[5]; [16],64 mg/L
same,MIC of ABPC when used in combination with EGCG-C16 or EGCG,[5]; [17],4 mg/L
same,MIC of ABPC when used in combination with EGCG-C16 or EGCG,[5]; concentration of EGCG-C16 or EGCG 16 μg/ml,8 mg/L
same,MIC of ABPC when used in combination with EGCG-C16 or EGCG,[5]; concentration of EGCG-C16 or EGCG 32 μg/ml,8 mg/L
same,MIC of ABPC when used in combination with EGCG-C16 or EGCG,[5]; concentration of EGCG-C16 or EGCG 64 μg/ml,4 mg/L
same,MIC of ABPC when used in combination with EGCG-C16 or EGCG,[5]; concentration of EGCG-C16 or EGCG 128 μg/ml,1 mg/L
